Source: US4552882A, “7-(1-Pyrrolyl) derivatives of 1-ethyl-1,4-dihydro-4-oxoquinoline-3-carboxylic acids and 1-ethyl-1,4-dihydro-4-oxo-1,8-naphthyridine-3-carboxylic acids and their use as antimicrobial agents” (Provesan, SA, priority 1983, dated 1985)
Values after ≈ are worked out from the molar mass of the structure shown.

Columns and labels:
Assay in all cases: MIC in vitro
Sarcina lutea ATCC 9341 = type: cell-based; settings: Micrococcus luteus, ATCC9341, Dextrose agar, 37° C., 20 hours
Procedure: (§1) (G. L. Daquet and Y. A. Chabbect, Techniques en bacteriologie (Bacteriological techniques), vol. 3, Flammarion Medecine Sciences, Paris, 1972 and W. B. Hugo and A. D. Rusell, Pharmaceutical Microbiology, Blackwell Scientific Publications, London, (1977)). Antibiotic medium no. 1 (seed agar) (Oxoid CM 327) Tryptone-soya broth (Oxoid CM 129) Ringer's physiological solution 1/4 (oxoid BR 52) Dextrose agar (BBL-11165) 0.1 N NaOH "Sarcina Lutea" ATCC 9341 Each of the microorganisms is seeded by streaking in tubes of Antibiotic medium No. 1 (seed agar), which are then incubated at 37° C. for 20 hours. Using a culture loop, the cultures are then seeded in tryptone-soyabroth and incubated at 37° C. for 20 hours. The culture obtained is diluted to 1/4 with Ringer's physiological solution, so as to obtain a standardized suspension of 10^7 -10^9 cfu/ml for each organism. Starting from a solution of 1,000 μg/ml in 0.1 N NaOH, each product is diluted in Dextrose agar (previously melted and maintained at 50° C.), with successive dilutions so as to obtain the following concentrations: 64--32--16--8--4--2--1--0.5--0.25--0.125 μg of derivative/ml medium. For each product, the solution of each concentration is subsequently distributed into Petri dishes 10 cm in diameter, with 10 ml of medium per dish and the same number of dishes as microorganisms to be tested. As soon as the medium has cooled, the dishes are seeded with the inoculations using 0.4 ml of inoculation per dish. They are spread with a Driglasky loop and the supernatant is removed. The seeded dishes are incubated at 37° C. for 20 hours.

[1] = tested on: Pseudomonas aeroginosa ADSA 47; type: cell-based, Pseudomonas aeruginosa; settings: ADSA47, Dextrose agar, 37° C., 20 hours
Procedure: as §1, with “"Pseudomonas aeruginosa" ADSA 47” for “"Sarcina Lutea" ATCC 9341”

[2] = tested on: Proteus mirabilis ATCC 4675; type: cell-based; settings: ATCC4675, Dextrose agar, 37° C., 20 hours
Procedure: as §1, with “"Proteus mirabilis"” for “"Sarcina Lutea"”, “4675” for “9341”

Structure (SMILES)	MIC (Sarcina lutea ATCC 9341)	MIC [1]	MIC [2]
CCn1cc(C(=O)O)c(=O)c2ccc(-n3cccc3)cc21 [Example 1, 7-(1-pyrrolyl)-1-ethyl-1,4-dihydro-4-oxo-3-quinolinecarboxylic acid]	16 µg/mL (≈ 56.7 µM)	> 64 µg/mL	16 µg/mL (≈ 56.7 µM)
CCn1cc(C(=O)O)c(=O)c2cc(F)c(-n3cccc3)cc21 [Example 2, 6-fluoro-7-(1-pyrrolyl)-1-ethyl-1,4-dihydro-4-oxo-3-quinolinecarboxylic acid]	16 µg/mL (≈ 53.3 µM)	64 µg/mL (≈ 213 µM)	4 µg/mL (≈ 13.3 µM)
CCn1cc(C(=O)O)c(=O)c2ccc(-n3cccc3)nc21 [Example 3, 1-ethyl-1,4-dihydro-4-oxo-7-(1-pyrrolyl)-1,8-naphthyridine-3-carboxylic acid]	8 µg/mL (≈ 28.2 µM)	> 64 µg/mL	> 64 µg/mL
CCn1cc(C(=O)O)c(=O)c2cc(F)c(-n3cccc3)nc21 [Example 4, 1-ethyl-1,4-dihydro-4-oxo-6-fluoro-7-(1-pyrrolyl)-1,8-naphthyridine-3-carboxylic acid]	4 µg/mL (≈ 13.3 µM)	> 64 µg/mL	8 µg/mL (≈ 26.6 µM)
CCn1cc(C(=O)O)c(=O)c2cnc(N3CCNCC3)nc21 [Pipemidic acid, reference compound]	> 64 µg/mL	32 µg/mL (≈ 105 µM)	16 µg/mL (≈ 52.7 µM)
